Tests used:
Type in all cases: cell-based
A549 cells = experiment: Cell viability (CellTiter-Glo ATP content) in A549 cells; settings: Homo sapiens, A549, 72 h, 72 hours treatment, cell survival by CellTiter-Glo, 2% fetal bovine serum
Outline: (§1)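 Cells plated at 5,000 per well in antibiotic-free RPMI with 2% FBS, treated next day in triplicate with increasing compound doses (final DMSO 0.5%) for 72 hours. Viability read as ATP content by CellTiter-Glo luminescence; percent survival relative to vehicle control set as 100%.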

LOX cells = experiment: Cell viability (CellTiter-Glo ATP content) in LOX cells; settings: LOX, 72 h, 72 hours treatment, cell survival by CellTiter-Glo, 2% fetal bovine serum
Outline: as §1

MelJuSo cells = experiment: Cell viability (CellTiter-Glo ATP content) in MelJuSo cells; settings: Homo sapiens, MEL-JUSO, 72 hours treatment, cell survival by CellTiter-Glo, 2% fetal bovine serum
Outline: as §1

CN(C)CCNC(=O)CNC(=O)C1(C)C(c2cccs2)C(c2ccc(F)cc2)=NN1c1ccc(F)cc1F (stereo not drawn) [Compound 107, 1-(2,4-difluorophenyl)-N-(2-(2-(dimethylamino)ethylamino)-2-oxoethyl)-3-(4-fluorophenyl)-5-methyl-4-(thiophen-2-yl)-4,5-dihydro-1H-pyrazole-5-carboxamide]
IC50 (A549 cells): > 2 µM
IC50 (LOX cells): > 2 µM
IC50 (MelJuSo cells): 1 to 2 µM

CC1(C(=O)NCC(=O)NC2COC2)C(c2cccs2)C(c2ccc(F)cc2)=NN1c1ccc(F)cc1F (stereo not drawn) [Compound 108, 1-(2,4-difluorophenyl)-3-(4-fluorophenyl)-5-methyl-N-(2-(oxetan-3-ylamino)-2-oxoethyl)-4-(thiophen-2-yl)-4,5-dihydro-1H-pyrazole-5-carboxamide]
IC50 (A549 cells): > 2 µM
IC50 (LOX cells): > 2 µM
IC50 (MelJuSo cells): > 2 µM

CC1(C(=O)NCC(=O)NCCS(C)(=O)=O)C(c2cccs2)C(c2ccc(F)cc2)=NN1c1ccc(F)cc1F (stereo not drawn) [Compound 109, 1-(2,4-difluorophenyl)-3-(4-fluorophenyl)-5-methyl-N-(2-(2-(methylsulfonyl)ethylamino)-2-oxoethyl)-4-(thiophen-2-yl)-4,5-dihydro-1H-pyrazole-5-carboxamide]
IC50 (A549 cells): > 2 µM
IC50 (LOX cells): > 2 µM
IC50 (MelJuSo cells): > 2 µM

CC1(O)CC(NC(=O)CNC(=O)C2(C)C(c3cccs3)C(c3ccc(F)cc3)=NN2c2ccc(F)cc2F)C1 (stereo not drawn) [Compound 110, 1-(2,4-difluorophenyl)-3-(4-fluorophenyl)-N-(2-(3-hydroxy-3-methylcyclobutylamino)-2-oxoethyl)-5-methyl-4-(thiophen-2-yl)-4,5-dihydro-1H-pyrazole-5-carboxamide]
IC50 (A549 cells): > 2 µM
IC50 (LOX cells): > 2 µM
IC50 (MelJuSo cells): > 2 µM

CON(C)C(=O)CNC(=O)C1(C)C(c2cccs2)C(c2ccc(F)cc2)=NN1c1ccc(F)cc1F (stereo not drawn) [Compound 111, 1-(2,4-difluorophenyl)-3-(4-fluorophenyl)-N-(2-(methoxy(methyl)amino)-2-oxoethyl)-5-methyl-4-(thiophen-2-yl)-4,5-dihydro-1H-pyrazole-5-carboxamide]
IC50 (A549 cells): > 2 µM
IC50 (LOX cells): > 2 µM
IC50 (MelJuSo cells): > 2 µM

CC1(C(=O)NCC(=O)NCCO)C(c2cccs2)C(c2ccc(F)cc2)=NN1c1ccc(F)cc1F (stereo not drawn) [Compound 112, 1-(2,4-difluorophenyl)-3-(4-fluorophenyl)-N-(2-(2-hydroxyethylamino)-2-oxoethyl)-5-methyl-4-(thiophen-2-yl)-4,5-dihydro-1H-pyrazole-5-carboxamide]
IC50 (A549 cells): > 2 µM
IC50 (LOX cells): > 2 µM
IC50 (MelJuSo cells): > 2 µM

CCCCC1C(c2ccc(S(C)(=O)=O)cc2)=NN(c2ccc(F)cc2F)C1(C)C(=O)NCCCC(C)(C)CO (stereo not drawn) [Compound 113, 4-butyl-1-(2,4-difluorophenyl)-N-(5-hydroxy-4,4-dimethylpentyl)-5-methyl-3-(4-(methylsulfonyl)phenyl)-4,5-dihydro-1H-pyrazole-5-carboxamide]
IC50 (A549 cells): > 2 µM
IC50 (LOX cells): > 2 µM
IC50 (MelJuSo cells): > 2 µM

CCCCC1C(c2ccc(S(C)(=O)=O)cc2)=NN(c2ccc(F)cc2F)C1(C)C(=O)NCCOC (stereo not drawn) [Compound 114, 4-butyl-1-(2,4-difluorophenyl)-N-(2-methoxyethyl)-5-methyl-3-(4-(methylsulfonyl)phenyl)-4,5-dihydro-1H-pyrazole-5-carboxamide]
IC50 (A549 cells): > 2 µM
IC50 (LOX cells): > 2 µM
IC50 (MelJuSo cells): > 2 µM

CC(C)(CO)CCCNC(=O)C1(C)C(c2ccco2)C(c2ccc(F)cc2F)=NN1c1ccc(F)cc1F (stereo not drawn) [Compound 115, 1,3-bis(2,4-difluorophenyl)-4-(furan-2-yl)-N-(5-hydroxy-4,4-dimethylpentyl)-5-methyl-4,5-dihydro-1H-pyrazole-5-carboxamide]
IC50 (A549 cells): 0.5 to 1 µM
IC50 (LOX cells): 0.5 to 1 µM
IC50 (MelJuSo cells): 0.25 to 0.5 µM

COCCNC(=O)C1(C)C(c2ccco2)C(c2ccc(F)cc2F)=NN1c1ccc(F)cc1F (stereo not drawn) [Compound 116, 1,3-bis(2,4-difluorophenyl)-4-(furan-2-yl)-N-(2-methoxyethyl)-5-methyl-4,5-dihydro-1H-pyrazole-5-carboxamide]
IC50 (A549 cells): 0.25 to 0.5 µM
IC50 (LOX cells): < 0.25 µM
IC50 (MelJuSo cells): < 0.25 µM

CC(C)(CO)CCCNC(=O)C1(C)C(c2ccsc2)C(c2ccc(F)cc2F)=NN1c1ccc(F)cc1F (stereo not drawn) [Compound 117, 1,3-bis(2,4-difluorophenyl)-N-(5-hydroxy-4,4-dimethylpentyl)-5-methyl-4-(thiophen-3-yl)-4,5-dihydro-1H-pyrazole-5-carboxamide]
IC50 (A549 cells): 0.5 to 1 µM
IC50 (LOX cells): 0.5 to 1 µM
IC50 (MelJuSo cells): 0.25 to 0.5 µM

COCCNC(=O)C1(C)C(c2ccsc2)C(c2ccc(F)cc2F)=NN1c1ccc(F)cc1F (stereo not drawn) [Compound 118, 1,3-bis(2,4-difluorophenyl)-N-(2-methoxyethyl)-5-methyl-4-(thiophen-3-yl)-4,5-dihydro-1H-pyrazole-5-carboxamide]
IC50 (A549 cells): < 0.25 µM
IC50 (LOX cells): < 0.25 µM
IC50 (MelJuSo cells): < 0.25 µM

COC(=O)CNC(=O)C1(C)C(c2ccsc2)C(c2ccc(F)cc2F)=NN1c1ccc(F)cc1F (stereo not drawn) [Compound 119, methyl 2-(1,3-bis(2,4-difluorophenyl)-5-methyl-4-(thiophen-3-yl)-4,5-dihydro-1H-pyrazole-5-carboxamido)acetate]
IC50 (A549 cells): 0.5 to 1 µM
IC50 (LOX cells): 0.25 to 0.5 µM
IC50 (MelJuSo cells): < 0.25 µM

COCCNC(=O)C1(C)C(c2ccc(Cl)o2)C(c2ccc(F)cc2F)=NN1c1ccc(F)cc1F (stereo not drawn) [Compound 120, 4-(5-chlorofuran-2-yl)-1,3-bis(2,4-difluorophenyl)-N-(2-methoxyethyl)-5-methyl-4,5-dihydro-1H-pyrazole-5-carboxamide]
IC50 (A549 cells): < 0.25 µM
IC50 (LOX cells): < 0.25 µM
IC50 (MelJuSo cells): < 0.25 µM

COC(=O)CNC(=O)C1(C)C(c2ccc(Cl)o2)C(c2ccc(F)cc2F)=NN1c1ccc(F)cc1F (stereo not drawn) [Compound 121, methyl 2-(4-(5-chlorofuran-2-yl)-1,3-bis(2,4-difluorophenyl)-5-methyl-4,5-dihydro-1H-pyrazole-5-carboxamido)acetate]
IC50 (A549 cells): < 0.25 µM
IC50 (LOX cells): < 0.25 µM
IC50 (MelJuSo cells): < 0.25 µM

CC1(C(=O)NCCCN2CCOCC2)C(c2cccs2)C(c2ccc(F)cc2)=NN1c1ccc(F)cc1F (stereo not drawn) [Compound 122, 1-(2,4-difluorophenyl)-3-(4-fluorophenyl)-5-methyl-N-(3-morpholinopropyl)-4-(thiophen-2-yl)-4,5-dihydro-1H-pyrazole-5-carboxamide]
IC50 (A549 cells): > 2 µM
IC50 (LOX cells): > 2 µM
IC50 (MelJuSo cells): > 2 µM

CNC(=O)CNC(=O)C1(C)C(c2cccs2)C(c2ccc(F)cc2)=NN1c1ccc(F)cc1F (stereo not drawn) [Compound 123, 1-(2,4-difluorophenyl)-3-(4-fluorophenyl)-5-methyl-N-(2-(methylamino)-2-oxoethyl)-4-(thiophen-2-yl)-4,5-dihydro-1H-pyrazole-5-carboxamide]
IC50 (A549 cells): > 2 µM
IC50 (LOX cells): > 2 µM
IC50 (MelJuSo cells): 1 to 2 µM

CC1(C(=O)NCC(O)CCO)C(c2cccs2)C(c2ccc(F)cc2)=NN1c1ccc(F)cc1F (stereo not drawn) [Compound 124, 1-(2,4-difluorophenyl)-N-(2,4-dihydroxybutyl)-3-(4-fluorophenyl)-5-methyl-4-(thiophen-2-yl)-4,5-dihydro-1H-pyrazole-5-carboxamide]
IC50 (A549 cells): > 2 µM
IC50 (LOX cells): > 2 µM
IC50 (MelJuSo cells): > 2 µM

CC1(C(=O)NCCNC(=O)CCCCC2SC[C@@H]3NC(=O)N[C@H]23)C(c2cccs2)C(c2ccc(F)cc2)=NN1c1ccc(F)cc1F (stereo partly drawn) [Compound 125, 1-(2,4-difluorophenyl)-3-(4-fluorophenyl)-5-methyl-N-(2-(5-((3aS,6aR)-2-oxohexahydro-1H-thieno[3,4-d]imidazol-4-yl)pentanamido)ethyl)-4-(thiophen-2-yl)-4,5-dihydro-1H-pyrazole-5-carboxamide]
IC50 (A549 cells): > 2 µM
IC50 (LOX cells): > 2 µM
IC50 (MelJuSo cells): > 2 µM

CC1(C(=O)NCCN2CCOCC2)C(c2cccs2)C(c2ccc(F)cc2)=NN1c1ccc(F)cc1F (stereo not drawn) [Compound 126, 1-(2,4-difluorophenyl)-3-(4-fluorophenyl)-5-methyl-N-(2-morpholinoethyl)-4-(thiophen-2-yl)-4,5-dihydro-1H-pyrazole-5-carboxamide]
IC50 (A549 cells): > 2 µM
IC50 (LOX cells): > 2 µM
IC50 (MelJuSo cells): > 2 µM

CN1CCOC(CNC(=O)C2(C)C(c3cccs3)C(c3ccc(F)cc3)=NN2c2ccc(F)cc2F)C1 (stereo not drawn) [Compound 127, 1-(2,4-difluorophenyl)-3-(4-fluorophenyl)-5-methyl-N-((4-methylmorpholin-2-yl)methyl)-4-(thiophen-2-yl)-4,5-dihydro-1H-pyrazole-5-carboxamide]
IC50 (A549 cells): 0.5 to 1 µM
IC50 (LOX cells): 0.5 to 1 µM
IC50 (MelJuSo cells): < 0.25 µM

CC1(C(=O)NCC(=O)OCCO)C(c2cccs2)C(c2ccc(F)cc2)=NN1c1ccc(F)cc1F (stereo not drawn) [Compound 128, 2-hydroxyethyl 2-(1-(2,4-difluorophenyl)-3-(4-fluorophenyl)-5-methyl-4-(thiophen-2-yl)-4,5-dihydro-1H-pyrazole-5-carboxamido)acetate]
IC50 (A549 cells): 0.5 to 1 µM
IC50 (LOX cells): 0.5 to 1 µM
IC50 (MelJuSo cells): 0.25 to 0.5 µM

CC(C)(CO)CCCNC(=O)C1(C)C(c2ccoc2)C(c2ccc(F)cc2F)=NN1c1ccc(F)cc1F (stereo not drawn) [Compound 129, 1,3-bis(2,4-difluorophenyl)-4-(furan-3-yl)-N-(5-hydroxy-4,4-dimethylpentyl)-5-methyl-4,5-dihydro-1H-pyrazole-5-carboxamide]
IC50 (A549 cells): 0.5 to 1 µM
IC50 (LOX cells): 0.5 to 1 µM
IC50 (MelJuSo cells): 0.25 to 0.5 µM

COCCNC(=O)C1(C)C(c2ccoc2)C(c2ccc(F)cc2F)=NN1c1ccc(F)cc1F (stereo not drawn) [Compound 130, 1,3-bis(2,4-difluorophenyl)-4-(furan-3-yl)-N-(2-methoxyethyl)-5-methyl-4,5-dihydro-1H-pyrazole-5-carboxamide]
IC50 (A549 cells): > 2 µM
IC50 (LOX cells): > 2 µM
IC50 (MelJuSo cells): 0.5 to 1 µM

Reference: US12227482B2, “Compounds and compositions for the treatment of cancer” (The Regents of the University of California, priority 2016, dated 2025)
